The values that follow are results of earlier work, collected in patent US6375634B1, “APPARATUS AND METHOD TO ENCAPSULATE, KILL AND REMOVE MALIGNANCIES, INCLUDING SELECTIVELY INCREASING ABSORPTION OF X-RAYS AND INCREASING FREE-RADICAL DAMAGE TO RESIDUAL TUMORS TARGETED BY IONIZING AND NON-IONIZING RADIATION THERAPY” (Oncology Innovations, Inc., priority 1997, dated 2002).

Entries after “also recorded” stand apart in the source; their conditions may differ.

For data set [1], the system named is human pancreatic adenocarcinoma AsPC-1 cells.
The test system of data set [2] is DNA. The conditions noted are these: in the presence of hydrogen peroxide, among ferric iron chelates.
In data set [3] the test system is DNA.
For data set [4] the following is noted: iron overload states.
For data set [5] the following is noted: presence of l-histidine.
Data set [6] concerns Chinese hamster ovary cells.

In the case of `Cc1c(N)nc([C@H](CC(N)=O)NC[C@H](N)C(N)=O)nc1C(=O)N[C@H](C(=O)N[C@H](C)[C@@H](O)[C@H](C)C(=O)N[C@H](C(=O)NCCc1nc(-c2nc(C(=O)NCCC[S+](C)C)cs2)cs1)[C@@H](C)O)[C@@H](O[C@@H]1O[C@@H](CO)[C@@H](O)[C@H](O)[C@@H]1O[C@H]1O[C@H](CO)[C@@H](O)[C@H](OC(N)=O)[C@@H]1O)c1c[nH]cn1.[Br-]` [Bleomycin A2], in data set [1], the “cell cycle effect in flow-cytometric analysis” value is recorded as “induced G2/M block” and the induction of apoptosis result was “did not induce apoptosis”.
With `O=C(O)CN(CC(=O)O)CC(=O)O.[Fe+3]` [ferric nitrilo tri-acetic acid], the DNA damage result in data set [2] was “produced the most DNA damage”.
Turning to `OO` [hydrogen peroxide], in data set [3] (80 micromoles hydrogen peroxide, absence of histidine), the DNA injury result is “no injury”.
As for `[Fe]` [iron], the “tissue iron level at which the heart sustains injury” value in data set [4] is “approximately one thousand”.
As to `N[C@@H](Cc1c[nH]cn1)C(=O)O` [l-histidine], the “sensitivity of hydrogen peroxide resistant cell lines” value in data set [5] is recorded as “rendered sensitive”. In addition, the DNA destroyed result in data set [3] (80 micromoles hydrogen peroxide with 300 micromoles l-histidine present) was “more than 50%”.
For ferritin, in data set [6] (32 micrograms/ml), the toxicity result is “nontoxic; also recorded: not toxic”. Besides, the “reduction of clonogenic-cell survival after x-irradiation” value in data set [6] (32 micrograms/ml ferritin, 4.0 Gray) is listed as “approximately 75%”. In addition, in data set [6] (32 micrograms/ml ferritin, 4.0 Gray (about 0.66 without ferritin)), the “clonogenic-cell survival after x-irradiation” value is on record as about 0.17.
